Experimental data reported in article PMC5587682 (Scientific Reports, 2017).
Residues, ends and D or L forms follow the SMILES beside them.

System: A/Parma/24/09 H1N1 oseltamivir-resistant virus
Format: cell-based, Influenza A virus
Conditions: turkey erythrocytes

**Q.** How did the HI titer turn out when `C[C@@H](O)[C@H](NC(=O)[C@H](CCC(=O)O)NC(=O)[C@H](CO)NC(=O)[C@@H](N)CCCCN)C(=O)N[C@@H](CCCCN)C(=O)N[C@@H](CC(N)=O)C(=O)O` [Peptide 8, KSETKN] (H-KSETKN-OH; N-terminus and C-terminus assumed) was run?
**A.** Its HI titer is 0.3 nM.

**Q.** “NRKSSKHSSLDCVLRP [Peptide 11, bLf C-lobe fragment 414–429]” was tested. Which HI titer did it give?
**A.** The HI titer was 12 nM.

**Q.** For “SKHSSLDCVLRPTEGY [Peptide 12, bLf C-lobe fragment 418–433]”, which HI titer is on record?
**A.** Its HI titer is 0.1 nM.

**Q.** For `CC(C)C[C@H](NC(=O)[C@H](CO)NC(=O)[C@H](CO)NC(=O)[C@H](Cc1c[nH]cn1)NC(=O)[C@H](CCCCN)NC(=O)[C@@H](N)CO)C(=O)N[C@@H](CC(=O)O)C(=O)N[C@@H](CS)C(=O)O` [Peptide 16, SKHSSLDC] (H-SKHSSLDC-OH; N-terminus and C-terminus assumed), which HI titer is on record?
**A.** Its HI titer is 12 nM.

**Q.** `CC(C)C[C@H](NC(=O)[C@@H](NC(=O)[C@H](CS)NC(=O)[C@H](CC(=O)O)NC(=O)[C@H](CC(C)C)NC(=O)[C@@H](N)CO)C(C)C)C(=O)N[C@@H](CCCNC(=N)N)C(=O)N1CCC[C@H]1C(N)=O` [Peptide 13, SLDCVLRP] (H-SLDCVLRP-NH2) was tested. Which HI titer did it give?
**A.** Its HI titer is 0.00015 nM.

**Q.** For “NRKSSKHSSLDCVLRPTEGY [Peptide 10, bLf C-lobe fragment 414–433]”, which HI titer is on record?
**A.** Its HI titer is 6 nM.

**Q.** `C[C@H](NC(=O)[C@H](Cc1c[nH]c2ccccc12)NC(=O)[C@H](CC(=O)O)NC(=O)[C@H](C)NC(=O)[C@@H](NC(=O)[C@H](CO)NC(=O)[C@H](CCC(=O)O)NC(=O)CNC(=O)[C@H](CC(N)=O)NC(=O)[C@@H](N)[C@@H](C)O)[C@@H](C)O)C(=O)N[C@@H](CCCCN)C(=O)N[C@@H](CC(N)=O)C(N)=O` [Peptide 6, TNGESTADWAKN] (H-TNGESTADWAKN-NH2; N-terminus and C-terminus assumed) was tested. Which HI titer did it give?
**A.** Its HI titer is 1.5 nM.
